Test results published in US8791131B2, “Imidazo[1,5]naphthyridine compounds, their pharmaceutical use and compositions” (Pfizer Inc., priority 2008, dated 2014).
Where two headings read alike, the source gives them in different places.

How the values were obtained:
[1] = tested on: PI3-K (phosphorylation of AKT at serine 473) in BT20 cells; assay: PI3-Kα cellular assay (phospho-AKT Ser473 ELISA in BT20 cells); details: Homo sapiens, BT-20, 1 h;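 further: lysates read by ELISA with TMB colour at 450 nm, cells given 0.5% DMSO vehicle serve as positive control and cell-free wells as negative control, duplicate wells per concentration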
[2] = biological target: PI3-Kα (Mus musculus (Mouse), UniProt P42337); assay: PI3-Kα biochemical assay (in vitro kinase assay, fluorescence polarization); details: for PI3Ka Ki: Ki calculated from IC50, [ATP]=30 uM, Km=25 uM;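 on all read-outs here: Insect-cell-expressed mouse p110/p85 complex converting PI(4,5)P2, product PI(3,4,5)P3 detected by displacing TAMRA-tagged PI(3,4,5)P3 from Grip1 PH domain, lower polarization means more product, room temperature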
Chain of PI3-Kα (P42337 whole entry, the tested form may be a part): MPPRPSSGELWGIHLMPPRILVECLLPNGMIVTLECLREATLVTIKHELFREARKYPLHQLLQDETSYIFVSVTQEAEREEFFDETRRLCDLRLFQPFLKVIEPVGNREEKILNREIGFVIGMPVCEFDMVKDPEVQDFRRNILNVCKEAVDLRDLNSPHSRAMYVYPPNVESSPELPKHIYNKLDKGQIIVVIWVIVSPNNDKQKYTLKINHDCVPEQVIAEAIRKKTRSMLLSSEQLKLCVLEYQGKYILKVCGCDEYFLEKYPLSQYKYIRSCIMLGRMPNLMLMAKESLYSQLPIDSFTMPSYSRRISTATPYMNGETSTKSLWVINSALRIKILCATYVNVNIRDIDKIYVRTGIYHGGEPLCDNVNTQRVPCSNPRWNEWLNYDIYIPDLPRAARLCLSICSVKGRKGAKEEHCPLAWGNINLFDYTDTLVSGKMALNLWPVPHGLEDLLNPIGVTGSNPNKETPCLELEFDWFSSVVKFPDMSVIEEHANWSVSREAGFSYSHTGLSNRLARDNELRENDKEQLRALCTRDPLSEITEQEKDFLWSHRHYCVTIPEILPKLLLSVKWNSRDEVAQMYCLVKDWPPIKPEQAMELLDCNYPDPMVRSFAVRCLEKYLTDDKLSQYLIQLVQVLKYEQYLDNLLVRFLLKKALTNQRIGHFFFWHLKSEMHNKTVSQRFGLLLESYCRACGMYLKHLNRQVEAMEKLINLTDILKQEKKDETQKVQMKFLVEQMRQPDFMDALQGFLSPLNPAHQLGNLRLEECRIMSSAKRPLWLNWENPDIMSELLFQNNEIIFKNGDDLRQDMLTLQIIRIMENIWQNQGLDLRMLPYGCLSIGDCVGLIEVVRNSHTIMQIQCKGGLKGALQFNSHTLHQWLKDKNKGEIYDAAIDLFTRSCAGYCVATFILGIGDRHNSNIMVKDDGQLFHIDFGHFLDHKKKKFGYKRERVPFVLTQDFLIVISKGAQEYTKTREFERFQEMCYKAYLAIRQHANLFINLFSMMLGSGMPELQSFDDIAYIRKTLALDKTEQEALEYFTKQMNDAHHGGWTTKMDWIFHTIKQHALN
Chain of PI3-Kα (P26450 whole entry partner, the tested form may be a part): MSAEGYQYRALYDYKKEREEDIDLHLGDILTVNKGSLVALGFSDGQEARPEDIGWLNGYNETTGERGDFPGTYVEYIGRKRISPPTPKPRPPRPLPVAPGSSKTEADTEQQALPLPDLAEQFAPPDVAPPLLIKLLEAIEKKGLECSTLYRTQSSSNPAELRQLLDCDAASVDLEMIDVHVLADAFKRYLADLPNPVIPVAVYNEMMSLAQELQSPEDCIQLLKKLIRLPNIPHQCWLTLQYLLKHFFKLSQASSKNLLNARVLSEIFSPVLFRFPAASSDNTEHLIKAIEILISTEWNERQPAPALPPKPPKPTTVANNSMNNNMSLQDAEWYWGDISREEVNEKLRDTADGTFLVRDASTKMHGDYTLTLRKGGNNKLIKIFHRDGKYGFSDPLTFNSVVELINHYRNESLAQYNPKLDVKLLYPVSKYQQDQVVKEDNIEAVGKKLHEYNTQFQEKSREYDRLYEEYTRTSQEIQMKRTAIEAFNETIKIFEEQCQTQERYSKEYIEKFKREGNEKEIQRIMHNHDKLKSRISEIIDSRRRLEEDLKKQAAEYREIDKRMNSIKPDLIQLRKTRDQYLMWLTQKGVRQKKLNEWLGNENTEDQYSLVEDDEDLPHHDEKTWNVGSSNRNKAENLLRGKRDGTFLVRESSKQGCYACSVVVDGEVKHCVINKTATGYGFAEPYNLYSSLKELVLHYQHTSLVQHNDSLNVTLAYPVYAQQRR

[3] = biological target: mTOR (Homo sapiens (Human), UniProt P42345)
Chain of mTOR (P42345 2156-2469): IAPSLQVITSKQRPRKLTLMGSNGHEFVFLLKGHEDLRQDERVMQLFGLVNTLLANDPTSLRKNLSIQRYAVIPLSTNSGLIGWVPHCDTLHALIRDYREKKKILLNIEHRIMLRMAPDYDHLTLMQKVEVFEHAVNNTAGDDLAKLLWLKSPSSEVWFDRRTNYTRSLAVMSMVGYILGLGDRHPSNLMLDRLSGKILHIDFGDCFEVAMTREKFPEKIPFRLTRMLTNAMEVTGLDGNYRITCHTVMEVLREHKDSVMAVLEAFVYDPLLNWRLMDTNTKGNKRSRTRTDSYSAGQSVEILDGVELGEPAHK

[4] = read-out: S473 pAKT 0.5% FBS IC50 (μM)
[5] = read-out: S473 pAKT 10% FBS IC50 (μM)

PI3Ka Ki [2] [nM]	IC50 [1, 5] [µM]	SMILES	further results
6.09		COc1ncc(-c2ccc3ncc4c(c3n2)n(-c2ccc(C(C)(C)C#N)cc2)c(=O)n4C)cn1 [Compound 112, 2-(4-(8-(2-methoxypyrimidin-5-yl)-3-methyl-2-oxo-2,3-dihydroimidazo[4,5-c][1,5]naphthyridin-1-yl)phenyl)-2-methylpropanenitrile]	IC50 [1, 4]: 0.0272 µM
		CCNC(=O)N1CCC(n2c(=O)n(C)c3cnc4ccc(-c5cnc6ccccc6c5)nc4c32)CC1 [Compound 124, N-ethyl-4-(3-methyl-2-oxo-8-quinolin-3-yl-2,3-dihydro-1H-imidazo[4,5-c][1,5]naphthyridin-1-yl)piperidine-1-carboxamide]	IC50 [1, 4]: 0.017 µM
	0.0456	COc1ncc(-c2ccc3ncc4c(c3n2)n([C@H]2CC[C@H](C(N)=O)CC2)c(=O)n4C)cn1 [Compound 157, trans-4-[8-(2-methoxypyrimidin-5-yl)-3-methyl-2-oxo-2,3-dihydro-1H-imidazo[4,5-c][1,5]naphthyridin-1-yl]cyclohexanecarboxamide]	
	0.224	Cn1cc(-c2ccc3ncc4c(c3n2)n([C@H]2CC[C@H](C(N)=O)CC2)c(=O)n4C)cn1 [Compound 158, trans-4-[3-methyl-8-(1-methyl-1H-pyrazol-4-yl)-2-oxo-2,3-dihydro-1H-imidazo[4,5-c][1,5]naphthyridin-1-yl]cyclohexanecarboxamide]	
	0.0123	COCC(=O)N1CCC(n2c(=O)n(C)c3cnc4ccc(-c5cnc(OC)nc5)nc4c32)CC1 [Compound 161, 1-[1-(methoxyacetyl)piperidin-4-yl]-8-(2-methoxypyrimidin-5-yl)-3-methyl-1,3-dihydro-2H-imidazo[4,5-c][1,5]naphthyridin-2-one]	
23.3	0.264	Cn1c(=O)n([C@H]2CC[C@H](O)CC2)c2c3nc(-c4cc[nH]n4)ccc3ncc21 [Compound 174, 1-(trans-4-hydroxycyclohexyl)-3-methyl-8-(1H-pyrazol-3-yl)-1,3-dihydro-2H-imidazo[4,5-c][1,5]naphthyridin-2-one]	
28.7	0.175	COc1ncc(-c2ccc3ncc4c(c3n2)n(C2CCN(C(=O)CN(C)C)CC2)c(=O)n4C)cn1 [Compound 183, 1-[1-(N,N-dimethylglycyl)piperidin-4-yl]-8-(2-methoxypyrimidin-5-yl)-3-methyl-1,3-dihydro-2H-imidazo[4,5-c][1,5]naphthyridin-2-one]	
28.3	0.309	Cn1c(=O)n(C2CCOCC2)c2c3nc(-c4ccn[nH]4)ccc3ncc21 [Compound 202, 3-methyl-8-(1H-pyrazol-5-yl)-1-(tetrahydro-2H-pyran-4-yl)-1,3-dihydro-2H-imidazo[4,5-c][1,5]naphthyridin-2-one]	
0.264	0.00669	CN(C)c1ccc(-c2ccc3ncc4c(c3n2)n(C2CCN(C(=O)C(C)(C)O)CC2)c(=O)n4C)cn1 [Compound 209, 8-[6-(dimethylamino)pyridin-3-yl]-1-[1-(2-hydroxy-2-methylpropanoyl)piperidin-4-yl]-3-methyl-1,3-dihydro-2H-imidazo[4,5-c][1,5]naphthyridin-2-one]	
	0.00694	Cn1c(=O)n(C2CCOCC2)c2c3nc(-c4cnc(N)nc4)ccc3ncc21 [Compound 210, 8-(2-aminopyrimidin-5-yl)-3-methyl-1-(tetrahydro-2H-pyran-4-yl)-1,3-dihydro-2H-imidazo[4,5-c][1,5]naphthyridin-2-one]	
45.4	0.428	Cc1ccc(-c2ccc3ncc4c(c3n2)n(C2CCOCC2)c(=O)n4CCO)cn1 [Compound 218, 3-(2-hydroxyethyl)-8-(6-methylpyridin-3-yl)-1-(tetrahydro-2H-pyran-4-yl)-1,3-dihydro-2H-imidazo[4,5-c][1,5]naphthyridin-2-one]	
57.3		C[C@H](CO)n1c(=O)n(C)c2cnc3ccc(-c4cnc5ccccc5c4)nc3c21 [Compound 234, 1-[(1R)-2-hydroxy-1-methylethyl]-3-methyl-8-quinolin-3-yl-1,3-dihydro-2H-imidazo[4,5-c][1,5]naphthyridin-2-one]	
	0.00961	Cn1c(=O)n([C@H]2CC[C@H](O)CC2)c2c3nc(-c4cccc5[nH]ccc45)ccc3ncc21 [Compound 236, 1-(trans-4-hydroxycyclohexyl)-8-(1H-indo1-4-yl)-3-methyl-1,3-dihydro-2H-imidazo[4,5-c][1,5]naphthyridin-2-one]	
1.94	0.0815	CNC(=O)Nc1ccc(-c2ccc3ncc4c(c3n2)n(C2CCN(C(=O)[C@H](C)O)CC2)c(=O)n4C)cc1 [Compound 244, 1-[4-(1-{1-[(2S)-2-hydroxypropanoyl]piperidin-4-yl}-3-methyl-2-oxo-2,3-dihydro-1H-imidazo[4,5-c][1,5]naphthyridin-8-yl)phenyl]-3-methylurea]	
17.6		CC(=O)N1CCC(n2c(=O)n(C)c3cnc4ccc(-c5cccc(-n6cccn6)c5)nc4c32)CC1 [Compound 247, 1-(1-acetylpiperidin-4-yl)-3-methyl-8-[3-(1H-pyrazol-1-yl)phenyl]-1,3-dihydro-2H-imidazo[4,5-c][1,5]naphthyridin-2-one]	
0.366	0.0133	Cn1c(=O)n([C@H]2CC[C@H](O)CC2)c2c3nc(-c4cnc5[nH]ncc5c4)ccc3ncc21 [Compound 268, 1-(trans-4-hydroxycyclohexyl)-3-methyl-8-(1H-pyrazolo[3,4-b]pyridin-5-yl)-1,3-dihydro-2H-imidazo[4,5-c][1,5]naphthyridin-2-one]	
1.84	0.014	COc1ccc(-c2ccc3ncc4c(c3n2)n(C2CCN(C(=O)[C@H](C)O)CC2)c(=O)n4C)cc1 [Compound 272, 1-{1-[(2S)-2-hydroxypropanoyl]piperidin-4-yl}-8-(4-methoxyphenyl)-3-methyl-1,3-dihydro-2H-imidazo[4,5-c][1,5]naphthyridin-2-one]	
118		COc1ccccc1-c1ccc2ncc3c(c2n1)n(C1CCN(C(=O)CO)CC1)c(=O)n3C [Compound 279, 1-(1-glycoloylpiperidin-4-yl)-8-(2-methoxyphenyl)-3-methyl-1,3-dihydro 2H-imidazo[4,5-c][1,5]naphthyridin-2-one]	
		COc1ccccc1-c1ccc2ncc3c(c2n1)n(C1CCN(C(C)=O)CC1)c(=O)n3C [Compound 280, 1-(1-acetylpiperidin-4-yl)-8-(2-methoxyphenyl)-3-methyl-1,3-dihydro-2H-imidazo[4,5-c][1,5]naphthyridin-2-one]	Ki ([2]; read-out: PI3Ka Ki): 292 nM

SMILES	PI3Ka Ki [2] [nM]	IC50 [1, 5] [µM]	further results
Cn1cc(-c2ccc3ncc4c(c3n2)n(C2CCN(CC(F)(F)F)CC2)c(=O)n4C)cn1 [Compound 151, 3-methyl-8-(1-methyl-1H-pyrazol-4-yl)-1-[1-(2,2,2-trifluoroethyl)piperidin-4-yl]-1,3-dihydro-2H-imidazo[4,5-c][1,5]naphthyridin-2-one]		0.195	
COc1ncc(-c2ccc3ncc4c(c3n2)n([C@H]2CC[C@H](O)CC2)c(=O)n4C)cn1 [Compound 169, 1-(trans-4-hydroxycyclohexyl)-8-(2-methoxypyrimidin-5-yl)-3-methyl-1,3-dihydro-2H-imidazo[4,5-c][1,5]naphthyridin-2-one]		1	Ki [3]: 6.39 nM
CN1CCC(n2c(=O)n(C)c3cnc4ccc(-c5ccc(N(C)C)nc5)nc4c32)CC1 [Compound 207, 8-[6-(dimethylamino)pyridin-3-yl]-3-methyl-1-(1-methylpiperidin-4-yl)-1,3-dihydro-2H-imidazo[4,5-c][1,5]naphthyridin-2-one]		0.0194	Ki [3]: 9.62 nM
COc1ccc(-c2ccc3ncc4c(c3n2)n(C2CCOCC2)c(=O)n4CCO)cn1 [Compound 219, 3-(2-hydroxyethyl)-8-(6-methoxypyridin-3-yl)-1-(tetrahydro-2H-pyran-4-yl)-1,3-dihydro-2H-imidazo[4,5-c][1,5]naphthyridin-2-one]	75.7		Ki [3]: 47.2 nM
CN(C)c1ccc(-c2ccc3ncc4c(c3n2)n(C2CCOCC2)c(=O)n4CCO)cn1 [Compound 222, 8-[6-(dimethylamino)pyridin-3-yl]-3-(2-hydroxyethyl)-1-(tetrahydro-2H-pyran-4-yl)-1,3-dihydro-2H-imidazo[4,5-c][1,5]naphthyridin-2-one]	319		Ki [3]: 50.1 nM
C[C@H](CO)n1c(=O)n(C)c2cnc3ccc(-c4cnn(C)c4)nc3c21 [Compound 232, 1-[(1R)-2-hydroxy-1-methylethyl]-3-methyl-8-(1-methyl-1H-pyrazol-4-yl)-1,3-dihydro-2H-imidazo[4,5-c][1,5]naphthyridin-2-one]	143		Ki [3]: 521 nM
CNC(=O)Nc1ccc(-c2ccc3ncc4c(c3n2)n(C2CCN(C(=O)CO)CC2)c(=O)n4C)cc1 [Compound 245, 1-{4-[1-(1-glycoloylpiperidin-4-yl)-3-methyl-2-oxo-2,3-dihydro-1H-imidazo[4,5-c][1,5]naphthyridin-8-yl]phenyl}-3-methylurea]	2.19		Ki [3]: 2.03 nM
Cn1c(=O)n(C2CCN(C(=O)CO)CC2)c2c3nc(-c4ccnc5[nH]ncc45)ccc3ncc21 [Compound 252, 1-(1-glycoloylpiperidin-4-yl)-3-methyl-8-(1H-pyrazolo[3,4-b]pyridin-4-yl)-1,3-dihydro-2H-imidazo[4,5-c][1,5]naphthyridin-2-one]	0.832		Ki [3]: 1.77 nM
COc1ccc(-c2ccc3ncc4c(c3n2)n(CCN2CCOCC2)c(=O)n4C)cn1 [Compound 269, 8-(6-methoxypyridin-3-yl)-3-methyl-1-(2-morpholin-4-ylethyl)-1,3-dihydro-2H-imidazo[4,5-c][1,5]naphthyridin-2-one]	12.2		Ki [3]: 27.8 nM
